Columns and labels:
human CGAS (157-522) = human CGAS (157-522) (Homo sapiens, UniProt Q8N884); assay: biochemical;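 also: biochemical enzyme reaction, 2′3′-cGAMP product measured by RapidFire mass spectrometry (MRM) normalised to c-di-UMP internal standard, inhibition of product formation relative to high and low control wells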
CGAS = CGAS whole blood cytokine release assay (384-well, BacMam stimulation, IP-10 by cytometric bead array); format: cell-based; details: Homo sapiens, 6 h; read-out: hWB pXC50 (converted)
Procedure, shortened: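 Heparinised human donor whole blood mixed with serially diluted compound plus Null BacMam stimulus, incubated 6 h at 37° C, 5% CO2. Supernatant IP-10 quantified by cytometric bead array on flow cytometer (488 nm excitation, 585/40 nm emission); inhibition of IP-10 calculated.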

human CGAS (157-522), sequence (Q8N884 157-522): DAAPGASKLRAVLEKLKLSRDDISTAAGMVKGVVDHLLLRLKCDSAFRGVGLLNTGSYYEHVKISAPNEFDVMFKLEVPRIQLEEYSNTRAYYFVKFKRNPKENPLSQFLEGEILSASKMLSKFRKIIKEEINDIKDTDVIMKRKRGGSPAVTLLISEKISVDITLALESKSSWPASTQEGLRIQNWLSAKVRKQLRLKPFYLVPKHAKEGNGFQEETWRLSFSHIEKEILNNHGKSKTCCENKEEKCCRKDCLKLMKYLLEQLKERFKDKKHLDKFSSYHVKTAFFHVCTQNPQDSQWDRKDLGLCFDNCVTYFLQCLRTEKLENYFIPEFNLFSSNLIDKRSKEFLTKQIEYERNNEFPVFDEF

Row | Structure (SMILES) | IC50 (human CGAS (157-522)) [nM] | IC50 (CGAS) [nM]
1 | CC(=O)OCn1cnc(-c2c(-c3nc(C(F)(F)F)nn3COC(C)=O)nc3ncccn23)c1 [Example 84, [5-(3-{1-[(acetyloxy)methyl]-1H-imidazol-4-yl}imidazo[1,2-a]pyrimidin-2-yl)-3-(trifluoromethyl)-1H-1,2,4-triazol-1-yl]methyl acetate] | 15800 | 158
2 | CC(=O)N1Cc2cn3c(-c4cnc[nH]4)c(-c4nc(C(F)(F)F)n[nH]4)nc3nc2C(F)(F)C1 [Example 87, 1-[13,13-difluoro-6-(1H-imidazol-5-yl)-5-[3-(trifluoromethyl)-1H-1,2,4-triazol-5-yl]-2,4,7,11-tetraazatricyclo[7.4.0.0^3,^7]trideca-1,3,5,8-tetraen-11-yl]ethan-1-one] | 2000 | > 31600
3 | FC(F)c1n[nH]c(-c2nc3nc(C(F)(F)F)ccn3c2-c2cnc[nH]2)n1 [Example 88, 3-(difluoromethyl)-5-[3-(1H-imidazol-5-yl)-7-(trifluoromethyl)imidazo[1,2-a]pyrimidin-2-yl]-1H-1,2,4-triazole] | 5.01 | 501
4 | FC(F)c1n[nH]c(-c2nc3ncccn3c2-c2cn[nH]c2)n1 [Example 90, 3-(difluoromethyl)-5-[3-(1H-pyrazol-4-yl)imidazo[1,2-a]pyrimidin-2-yl]-1H-1,2,4-triazole] | 10 | 1000
5 | FC(F)c1ccn2c(-c3cnc[nH]3)c(-c3nc(C(F)(F)F)n[nH]3)nc2n1 [Example 95, 5-[7-(difluoromethyl)-3-(1H-imidazol-5-yl)imidazo[1,2-a]pyrimidin-2-yl]-3-(trifluoromethyl)-1H-1,2,4-triazole] | 10 | 398
6 | CC(C)(C)c1cnc2nc(-c3nc(C(F)(F)F)n[nH]3)c(-c3c[nH]cn3)n2c1 [Example 109, 5-[6-tert-butyl-3-(1H-imidazol-4-yl)imidazo[1,2-a]pyrimidin-2-yl]-3-(trifluoromethyl)-1H-1,2,4-triazole] | 5.01 | 1260
7 | N#Cc1cnc2nc(-c3nc(C(F)(F)F)n[nH]3)c(-c3cnc[nH]3)n2c1 [Example 110, 3-(1H-imidazol-5-yl)-2-[3-(trifluoromethyl)-1H-1,2,4-triazol-5-yl]imidazo[1,2-a]pyrimidine-6-carbonitrile] | 50.1 | 398
8 | COCc1cn2c(-c3cnc[nH]3)c(-c3nc(C(F)(F)F)n[nH]3)nc2nc1C(F)(F)F [Example 114, 5-[3-(1H-imidazol-5-yl)-6-(methoxymethyl)-7-(trifluoromethyl)imidazo[1,2-a]pyrimidin-2-yl]-3-(trifluoromethyl)-1H-1,2,4-triazole] | 3.98 | 1000
9 | CCOCc1cn2c(-c3cnc[nH]3)c(-c3nc(C(F)F)n[nH]3)nc2nc1C(F)(F)F [Example 117, 3-(difluoromethyl)-5-[6-(ethoxymethyl)-3-(1H-imidazol-5-yl)-7-(trifluoromethyl)imidazo[1,2-a]pyrimidin-2-yl]-1H-1,2,4-triazole] | 6.31 | 3160
10 | CC(NCc1ccn2c(-c3c[nH]cn3)c(-c3nc(C(F)(F)F)n[nH]3)nc2n1)C(F)(F)F (stereo not shown) [Example 118, {[3-(1H-imidazol-4-yl)-2-[3-(trifluoromethyl)-1H-1,2,4-triazol-5-yl]imidazo[1,2-a]pyrimidin-7-yl]methyl}(1,1,1-trifluoropropan-2-yl)amine] | 12.6 | 631
11 | FC(F)c1cnc2nc(-c3nc(C(F)(F)F)n[nH]3)c(-c3c[nH]cn3)n2c1 [Example 120, 5-[6-(difluoromethyl)-3-(1H-imidazol-4-yl)imidazo[1,2-a]pyrimidin-2-yl]-3-(trifluoromethyl)-1H-1,2,4-triazole] | 6.31 | 631
12 | COCc1cn2c(-c3cnc[nH]3)c(-c3nc(C(F)F)n[nH]3)nc2nc1C(F)(F)F [Example 121, 3-(difluoromethyl)-5-[3-(1H-imidazol-5-yl)-6-(methoxymethyl)-7-(trifluoromethyl)imidazo[1,2-a]pyrimidin-2-yl]-1H-1,2,4-triazole] | 7.94 | 1580
13 | FC(F)(F)c1n[nH]c(-c2nc3ncc(COCC(F)(F)C(F)(F)C(F)(F)F)cn3c2-c2cnc[nH]2)n1 [Example 123, 5-{6-[(2,2,3,3,4,4,4-heptafluorobutoxy)methyl]-3-(1H-imidazol-5-yl)imidazo[1,2-a]pyrimidin-2-yl}-3-(trifluoromethyl)-1H-1,2,4-triazole] | 6.31 | 1260
14 | N#Cc1ccn2c(-c3c[nH]cn3)c(-c3nc(C(F)(F)F)n[nH]3)nc2n1 [Example 124, 3-(1H-imidazol-4-yl)-2-[3-(trifluoromethyl)-1H-1,2,4-triazol-5-yl]imidazo[1,2-a]pyrimidine-7-carbonitrile] | 6.31 | 158
15 | Fc1cn2c(-c3cnc[nH]3)c(-c3nc(C(F)(F)F)n[nH]3)nc2nc1C(F)(F)F [Example 125, 5-[6-fluoro-3-(1H-imidazol-5-yl)-7-(trifluoromethyl)imidazo[1,2-a]pyrimidin-2-yl]-3-(trifluoromethyl)-1H-1,2,4-triazole] | 15.8 | 3160
16 | FC(F)(F)c1n[nH]c(-c2nc3ncc(COCC4CCOC4)cn3c2-c2cnc[nH]2)n1 (stereo not shown) [Example 126, 5-[3-(1H-imidazol-5-yl)-6-{[(oxolan-3-yl)methoxy]methyl}imidazo[1,2-a]pyrimidin-2-yl]-3-(trifluoromethyl)-1H-1,2,4-triazole] | 7.94 | 501
17 | COCC(C)COCc1cnc2nc(-c3nc(C(F)(F)F)n[nH]3)c(-c3cnc[nH]3)n2c1 (stereo not shown) [Example 127, 5-[3-(1H-imidazol-5-yl)-6-[(3-methoxy-2-methylpropoxy)methyl]imidazo[1,2-a]pyrimidin-2-yl]-3-(trifluoromethyl)-1H-1,2,4-triazole] | 7.94 | 251
18 | FC(F)(F)c1n[nH]c(-c2nc3nc(C(F)(F)F)c(Cl)cn3c2-c2cnc[nH]2)n1 [Example 128, 5-[6-chloro-3-(1H-imidazol-5-yl)-7-(trifluoromethyl)imidazo[1,2-a]pyrimidin-2-yl]-3-(trifluoromethyl)-1H-1,2,4-triazole] | 12.6 | 3160
19 | CCOCCOCc1cnc2nc(-c3nc(C(F)(F)F)n[nH]3)c(-c3cnc[nH]3)n2c1 [Example 129, 5-{6-[(2-ethoxyethoxy)methyl]-3-(1H-imidazol-5-yl)imidazo[1,2-a]pyrimidin-2-yl}-3-(trifluoromethyl)-1H-1,2,4-triazole] | 7.94 | 316
20 | FC(F)(F)c1n[nH]c(-c2nc3nc4c(cn3c2-c2cnc[nH]2)CCCC4)n1 [Example 134, 5-[3-(1H-imidazol-5-yl)-6H,7H,8H,9H-imidazo[2,1-b]quinazolin-2-yl]-3-(trifluoromethyl)-1H-1,2,4-triazole] | 3.98 | 398

More lines, now with the values ahead:

Row | IC50 (human CGAS (157-522)) [nM] | IC50 (CGAS) [nM] | Structure (SMILES)
21 | 3.98 | 50.1 | COCc1cnc2nc(-c3nc(C(F)F)n[nH]3)c(-c3cnc[nH]3)n2c1 [Example 86, 3-(difluoromethyl)-5-[3-(1H-imidazol-5-yl)-6-(methoxymethyl)imidazo[1,2-a]pyrimidin-2-yl]-1H-1,2,4-triazole]
22 | 2.51 | 1580 | FC(F)(F)c1n[nH]c(-c2nc3ncc(Cc4ccccc4)cn3c2-c2cnc[nH]2)n1 [Example 89, 5-[6-benzyl-3-(1H-imidazol-5-yl)imidazo[1,2-a]pyrimidin-2-yl]-3-(trifluoromethyl)-1H-1,2,4-triazole]
23 | 1.26 | 251 | FC(F)(F)c1n[nH]c(-c2nc3nc4c(cn3c2-c2cnc[nH]2)CSCC4)n1 [Example 103, 6-(1H-imidazol-5-yl)-5-[3-(trifluoromethyl)-1H-1,2,4-triazol-5-yl]-11-thia-2,4,7-triazatricyclo[7.4.0.03,7]trideca-1,3,5,8-tetraene]
24 | 3.98 | 6310 | O=S1(=O)CCc2nc3nc(-c4nc(C(F)(F)F)n[nH]4)c(-c4cnc[nH]4)n3cc2C1 [Example 104, 6-(1H-imidazol-5-yl)-5-[3-(trifluoromethyl)-1H-1,2,4-triazol-5-yl]-11λ^6-thia-2,4,7-triazatricyclo[7.4.0.0^3,^7]trideca-1,3,5,8-tetraene-11,11-dione]
25 | 3.16 | 1000 | N#CCCOCc1cnc2nc(-c3nc(C(F)(F)F)n[nH]3)c(-c3cnc[nH]3)n2c1 [Example 105, 3-{[3-(1H-imidazol-5-yl)-2-[3-(trifluoromethyl)-1H-1,2,4-triazol-5-yl]imidazo[1,2-a]pyrimidin-6-yl]methoxy}propanenitrile]
26 | 2.51 | 631 | Nc1ccn2c(-c3cnc[nH]3)c(-c3nc(C(F)(F)F)n[nH]3)nc2n1 [Example 107, 3-(1H-imidazol-5-yl)-2-[3-(trifluoromethyl)-1H-1,2,4-triazol-5-yl]imidazo[1,2-a]pyrimidin-7-amine]
27 | 3.98 | 398 | FC(F)(F)COCc1cnc2nc(-c3nc(C(F)(F)F)n[nH]3)c(-c3cnc[nH]3)n2c1 [Example 111, 5-[3-(1H-imidazol-5-yl)-6-[(2,2,2-trifluoroethoxy)methyl]imidazo[1,2-a]pyrimidin-2-yl]-3-(trifluoromethyl)-1H-1,2,4-triazole]
28 | 3.16 | 200 | FC(F)(F)c1n[nH]c(-c2nc3nc4c(cn3c2-c2cnc[nH]2)CCC4)n1 [Example 133, 12-(1H-imidazol-5-yl)-11-[3-(trifluoromethyl)-1H-1,2,4-triazol-5-yl]-1,8,10-triazatricyclo[7.3.0.0^3,^7]dodeca-2,7,9,11-tetraene]
29 | 3.16 | 631 | FC(F)(F)c1n[nH]c(-c2nc3ncc(OCC4CCOC4)cn3c2-c2c[nH]cn2)n1 (stereo not shown) [Example 135, 5-[3-(1H-imidazol-4-yl)-6-[(oxolan-3-yl)methoxy]imidazo[1,2-a]pyrimidin-2-yl]-3-(trifluoromethyl)-1H-1,2,4-triazole]
